# Experimental data reported in ChEMBL document CHEMBL3603760, “Potential therapeutic agents for circulatory diseases from Bauhinia glauca Benth.subsp. pernervosa. (Da Ye Guan Men)” (Bioorg Med Chem Lett, 2015).
# Calls of active or inactive are those of the source. No cut-off for these calls is given here.
# Tested on: not listed separately
# Test: Anti-platelet activity in rat platelet rich plasma assessed as inhibition of ADP and calcium-induced platelet aggregation incubated at 37 degC for 10 mins and measured 30 mins after ADP and calcium addition
# Format: functional
row,Structure (SMILES),IC50 [µM]
1,COc1cc(-c2cc(=O)c3c(O)cc(O)cc3o2)ccc1O [CHRYSOERIOL],27.1

# Tested on: not listed separately
# Test: (§1) Anti-platelet activity in rat platelet rich plasma assessed as inhibition of ADP and calcium-induced platelet aggregation at 100 uM pre-incubated at 37 degC for 10 mins and measured 30 mins after ADP and calcium addition
# Format: functional
row,Structure (SMILES),inhibition at 100 µM [%]
1,COC(=O)c1cc(O)c(O)c(O)c1 [GALLIC ACID METHYL ESTER],16.2
2,C[C@@H]1O[C@@H](Oc2cc(O)c3c(=O)cc(-c4cc(O)c(O)c(O)c4)oc3c2)[C@H](O)[C@H](O)[C@H]1O,41.3
3,C[C@@H]1O[C@@H](Oc2c(-c3ccc(O)c(O)c3)oc3cc(O)cc(O)c3c2=O)[C@H](O)[C@H](O)[C@H]1O [QUERCITRIN],2.13
4,O=c1c(O[C@@H]2O[C@H](CO)[C@@H](O)[C@H](O)[C@H]2O)c(-c2ccc(O)c(O)c2)oc2cc(O)cc(O)c12 [ISOQUERCETIN],36.2
5,Cc1c(O)cc2oc(-c3ccc(O)cc3)c(O)c(=O)c2c1O,26
6,COc1cc(-c2cc(=O)c3c(O)cc(O)cc3o2)ccc1O [CHRYSOERIOL],92.3
7,O=c1cc(-c2ccc(O)c(O)c2)oc2cc(O)ccc12,13.7
8,O=c1c(O[C@@H]2OC[C@H](O)[C@H](O)[C@H]2O)c(-c2ccc(O)c(O)c2)oc2cc(O)cc(O)c12 [GUAJAVERIN],7.29
9,O=c1c(O)c(-c2ccc(O)c(O)c2)oc2cc(O)cc(O)c12 [QUERCETIN],16.8
10,O=c1ccoc2cc(O)cc(O)c12,6.83
11,COc1cc(O[C@@H]2O[C@H](COC(=O)c3cc(O)c(O)c(O)c3)[C@@H](O)[C@H](O)[C@H]2O)ccc1O,22.1
12,COc1c(O)cc(C=O)cc1O,20.8
13,O=c1cc(-c2ccc(O)c(O)c2)oc2cc(O)cc(O)c12 [LUTEOLIN],26.6
14,O=c1c(O[C@@H]2O[C@H](CO)[C@H](O)[C@H](O)[C@H]2O)c(-c2ccc(O)c(O)c2)oc2cc(O)cc(O)c12 [HYPEROSIDE],35.2
15,O=C1C[C@@H](c2ccc(O)c(O)c2)Oc2cc(O)cc(O)c21 [ERIODICTYOL],24.5
16,O=C(O)/C=C/c1ccccc1 [CINNAMIC ACID],8.69
17,Oc1cc(O)c2c(c1)O[C@H](c1ccc(O)c(O)c1)[C@@H](O)C2 [CIANIDANOL],35.1

# Tested on: Platelet
# Test: as §1
# Format: functional
row,Structure (SMILES),inhibition
1,COc1c(-c2ccc(O)c(O)c2)oc2cc(O)ccc2c1=O,inactive
2,COc1cc(-c2oc3cc(O)cc(O)c3c(=O)c2O)ccc1O,inactive
3,COc1cc(O[C@@H]2O[C@H](COC(=O)c3cc(O)c(O)c(O)c3)[C@@H](O)[C@H](O)[C@H]2O)cc(O)c1OC,inactive
4,COc1c(C)c(O)c2c(=O)c(O)c(-c3ccc(O)cc3)oc2c1C,inactive
5,COc1c(-c2ccc(O)c(O)c2)oc2cc(O)cc(O)c2c1=O,inactive
6,COc1cc(C(=O)O)cc(OC)c1O,inactive
7,C[C@H]1O[C@@H](Oc2c(-c3cc(O)c(O)c(O)c3)oc3cc(O)cc(O)c3c2=O)[C@@H](O)[C@@H](O)[C@@H]1O,inactive
8,O=C(O)c1ccc(O)c(O)c1,inactive
9,Cc1c(O)c(C)c2c(c1O)C(=O)C[C@@H](c1ccc(O)cc1)O2,inactive
10,COc1ccc(C(=O)O)cc1O,inactive
11,O=C(O)c1cc(O)c(O)c(O)c1,inactive
12,O=c1c(O)c(-c2ccc(O)cc2)oc2cc(O)cc(O)c12,inactive

# Tested on: Platelet
# Test: Potency index, ratio of anti-platelet activity for aspirin to test compound in rat platelet rich plasma
# Format: functional
row,Structure (SMILES),Ratio
1,COc1cc(-c2cc(=O)c3c(O)cc(O)cc3o2)ccc1O [CHRYSOERIOL],2

# Tested on: not listed separately
# Test: Anti-platelet activity in rat platelet rich plasma assessed as inhibition of ADP and calcium-induced platelet aggregation at 1650 uM incubated at 37 degC for 10 mins and measured 30 mins after ADP and calcium addition
# Format: functional
row,Structure (SMILES),inhibition at 1650 µM [%]
1,CC(=O)Oc1ccccc1C(=O)O [ASPIRIN],41.5
